From publication PMC9254247, “Dual-sensitive antibacterial peptide nanoparticles prevent dental caries” (Theranostics, 2022)
Read-outs that look alike come from different tables or passages of the source.

What was measured:
[1] = test system: S. mutans UA159 (ATCC 700610); experiment: Minimal inhibition concentration (MIC) determination, S. mutans UA159; format: cell-based; conditions: Streptococcus mutans, ATCC700610, BHI medium, 48 h, A600
Method: (§1) Minimal inhibition concentration (MIC) determination . S.mutans UA159 (ATCC 700610) and 20 clinical S.mutans strains were used. S.mutans UA159 was purchased from Shanghai Biofeng Biotechnology Co., LTD. These bacteria grown in brain heart infusion broth (BHI, Beijing Land Bridge, China) at 37 °C under anaerobic conditions.
(§2) Due to bacteria incubation under the condition of excessive acid for a long time will affect its vitality, therefore, pH 5.5 was choose as acidic condition for the MIC determination. Peptides and CHX were dissolved in BHI medium of different pHs (pH 5.5 and 7.0) using serial dilutions to obtain different diluted solutions. 2 µL of bacteria (1×10^7 CFU (colony forming units) in the logarithmic phase were added into each well of 96-well plates containing 200 µL different diluted solutions. Note that […]
(§3) the aggregate behavior of peptides. In order to avoid interfering with the MIC test, it is important to set up the control wells which only contain different concentrations of peptides in BHI medium of different pHs. The absorbance at 600 nm was detected with a microplate reader (Multiskan Spectrum, BioTek Inc., USA) after 48 h. The inhibition rate of drugs on bacteria was calculated based on the absorbance […]
The SYTO 9 / PI double staining and scanning electron microscopy (SEM) were also performed to evaluate the bacterial killing and bacterial membrane disruption. […]

[2] = test system: clinically isolated S.mutans strains; experiment: MIC against clinically isolated S. mutans strains; format: cell-based; conditions: Streptococcus mutans
From the text: Peptide and different pH of culture medium prepared. The pH of BHI medium […]
was adjusted by HCl and NaOH. […]
Isolation and culture of clinical S.mutans strains. Ethical approval of the study and the written consent/permission forms were obtained from Institutional Review Board (IRB) at Hunan Normal University prior to the study. For each child, written permission form was reviewed and signed by their legal guardians. Plaque -biofilm samples were collected from patients, including 16 Middle-aged and young patients and 4 children (age between 48 and 72 months) diagnosed with severe early childhood caries (S-ECC) in Changsha Stomatological Hospital. After being collected using a sterilized periodontal scaler, pooled plaque samples were transferred into 1 mL thiolglycollate solution, covered with 0.5 mL sterile paraffin wax and immediately transported to the laboratory for isolation. In order to sufficient disperse the aggregates, samples should be gently vortexed and sonicated before isolation. A series of diluted dispersed samples were plated on TYCSB at 37 °C under anaerobic conditions. Then, the suspicious clones were selected and plated on the mitis salivarius agar (MSA) plus bacitracin at 37 °C under anaerobic conditions for further isolation. The isolated S.mutans were most of identified by mass spectrometry and all identified by microbiochemical reaction again. All isolated S.mutans were stored with glycerol for subsequent experiments.
as §1, §2, §3
The SYTO 9 / PI double staining and scanning electron microscopy (SEM) were also performed to evaluate the bacterial killing and bacterial membrane disruption.
For SYTO 9/PI double staining, pHly -1 NPs was added to actively growing S. mutans UA159 (10^6 CFU/m L) at the concentration of 22 μM at pH 4.5 or pH 7.0, after 1 h incubation, the bacteria treated were imaged by using LIVE/DEAD BacLight Bacterial Viability Kit (Thermo Fisher Scientific). SYTO 9 and PI were added according to the manufacturer ’s protocol and used for labeling […]
bacteria. […]
For SEM, S. mutans UA159 was treated by the same way to SYTO 9/PI double staining asay and then harvested, washed, and then fixed in 2.5 % glutaraldehyde for 3 h. After dehydration by serial concentrations of ethanol solutions (10%, 25%, 50%, 75%, 95%, and 100%) and lyophiliz ation overnight, the lyophilized samples were coated with goldand then photographed by SEM.

Measured: MIC

[H]/N=C(\N/C(=N/[H])NCCCCCCNC(=N)NC(=N)Nc1ccc(Cl)cc1)Nc1ccc(Cl)cc1 [CHX, chlorhexidine]
1 µM: [1]; pH 7.0 | [2]; pH 5.5, strain CS-1, pH 5.5, 5 repetitions, read-out: MIC | [2]; pH 5.5, strain CS-3, pH 5.5, 5 repetitions, read-out: MIC | [2]; pH 5.5, strain CS-4, pH 5.5, 5 repetitions, read-out: MIC | [2]; pH 5.5, strain CS-6, pH 5.5, 5 repetitions, read-out: MIC | [2]; pH 5.5, strain CS-7, pH 5.5, 5 repetitions, read-out: MIC | [2]; pH 5.5, strain CS-10, pH 5.5, 5 repetitions, read-out: MIC | [2]; pH 5.5, strain CS-11, pH 5.5, 5 repetitions, read-out: MIC | [2]; pH 5.5, strain CS-13, pH 5.5, 5 repetitions, read-out: MIC | [2]; pH 5.5, strain CS-14, pH 5.5, 5 repetitions, read-out: MIC | [2]; pH 5.5, strain CS-16, pH 5.5, 5 repetitions, read-out: MIC | [2]; pH 5.5, strain CS-17 (S-ECC child), pH 5.5, 5 repetitions, read-out: MIC
2 µM: [2]; pH 5.5, strain CS-5, pH 5.5, 5 repetitions, read-out: MIC | [2]; pH 5.5, strain CS-8, pH 5.5, 5 repetitions, read-out: MIC | [2]; pH 5.5, strain CS-9, pH 5.5, 5 repetitions, read-out: MIC | [2]; pH 5.5, strain CS-15, pH 5.5, 5 repetitions, read-out: MIC | [2]; pH 5.5, strain CS-18 (S-ECC child), pH 5.5, 5 repetitions, read-out: MIC | [2]; pH 5.5, strain CS-19 (S-ECC child), pH 5.5, 5 repetitions, read-out: MIC | [2]; pH 5.5, strain CS-20 (S-ECC child), pH 5.5, 5 repetitions, read-out: MIC
0.5 to 2 µM: [2]; pH 5.5, pH 5.5, range over 20 clinical strains, read-out: MIC values against 20 bacterial strains
0.5 µM: [1]; pH 5.5 | [2]; pH 5.5, strain CS-2, pH 5.5, 5 repetitions, read-out: MIC | [2]; pH 5.5, strain CS-12, pH 5.5, 5 repetitions, read-out: MIC
